Measured values published in ChEMBL document CHEMBL3797053, “2-Alkoxy-3-(sulfonylarylaminomethylene)-chroman-4-ones as potent and selective inhibitors of ectonucleotidases” (Eur J Med Chem, 2016).
Active and inactive are the calls of the source. The calls are words filed in the database; no cut-off is given here.

How the values were obtained:
5'-nucleotidase [1] = biological target: T1, 5'-nucleotidase (Rattus norvegicus, UniProt P21588); assay: Inhibition of rat Ecto-5'-nucleotidase transfected in COS7 cells preincubated for 10 mins followed by AMP addition measured after 10 mins; type: cell-based, COS-7
T1 sequence (P21588 whole entry): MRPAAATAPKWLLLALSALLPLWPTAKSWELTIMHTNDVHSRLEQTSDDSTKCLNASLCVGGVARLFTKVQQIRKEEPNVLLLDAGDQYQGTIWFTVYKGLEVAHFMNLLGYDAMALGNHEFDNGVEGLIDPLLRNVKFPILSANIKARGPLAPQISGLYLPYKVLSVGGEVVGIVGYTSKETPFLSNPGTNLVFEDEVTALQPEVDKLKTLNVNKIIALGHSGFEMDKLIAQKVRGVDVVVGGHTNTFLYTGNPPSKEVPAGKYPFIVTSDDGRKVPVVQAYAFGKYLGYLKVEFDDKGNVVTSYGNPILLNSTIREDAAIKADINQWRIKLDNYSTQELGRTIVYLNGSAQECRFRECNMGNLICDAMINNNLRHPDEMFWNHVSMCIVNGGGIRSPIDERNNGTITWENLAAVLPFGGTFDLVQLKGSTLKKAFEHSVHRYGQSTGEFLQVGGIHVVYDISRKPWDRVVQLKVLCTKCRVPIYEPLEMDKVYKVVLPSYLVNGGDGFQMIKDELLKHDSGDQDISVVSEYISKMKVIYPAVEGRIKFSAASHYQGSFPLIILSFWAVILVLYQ

[2] = biological target: Intestinal-type alkaline phosphatase (Bos taurus, UniProt P19111); assay: Inhibition of calf intestinal alkaline phosphatase preincubated for 3 to 5 mins followed by CDP-star substrate addition measured after 15 mins by luminescence assay
[3] = biological target: T2, Alkaline phosphatase, tissue-nonspecific isozyme (Bos taurus, UniProt P09487); assay: Inhibition of bovine tissue non-specific alkaline phosphatase preincubated for 3 to 5 mins followed by CDP-star substrate addition measured after 15 mins by luminescence assay
T2 sequence (P09487 whole entry): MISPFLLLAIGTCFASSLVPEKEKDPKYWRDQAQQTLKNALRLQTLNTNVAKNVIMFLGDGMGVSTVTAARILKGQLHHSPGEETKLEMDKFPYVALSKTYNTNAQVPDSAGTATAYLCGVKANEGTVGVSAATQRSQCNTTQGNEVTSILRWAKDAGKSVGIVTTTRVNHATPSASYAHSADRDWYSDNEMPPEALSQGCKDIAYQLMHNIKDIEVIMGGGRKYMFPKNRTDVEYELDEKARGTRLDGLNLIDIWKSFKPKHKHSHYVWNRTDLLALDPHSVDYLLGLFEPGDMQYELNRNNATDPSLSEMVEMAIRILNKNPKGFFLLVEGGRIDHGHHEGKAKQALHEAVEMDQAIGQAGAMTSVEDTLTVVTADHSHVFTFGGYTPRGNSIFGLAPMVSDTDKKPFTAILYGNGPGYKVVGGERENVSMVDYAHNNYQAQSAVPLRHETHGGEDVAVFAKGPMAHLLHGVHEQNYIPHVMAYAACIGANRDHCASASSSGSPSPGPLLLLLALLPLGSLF

5'-nucleotidase [4] = biological target: T3, 5'-nucleotidase (Homo sapiens, UniProt P21589); assay: Inhibition of human Ecto-5'-nucleotidase transfected in COS7 cells preincubated for 10 mins followed by AMP addition measured after 10 mins; type: cell-based, COS-7
[5] = biological target: T4, Alkaline phosphatase, tissue-nonspecific isozyme (Bos taurus) (UniProt P09487); assay: Inhibition of bovine tissue non-specific alkaline phosphatase at 0.2 mM preincubated for 3 to 5 mins followed by CDP-star substrate addition measured after 15 mins by luminescence assay
T4 sequence (whole entry): T2 sequence (P09487 whole entry)

5'-nucleotidase [6] = biological target: T3, 5'-nucleotidase; assay: Inhibition of human Ecto-5'-nucleotidase transfected in COS7 cells at 1 mM preincubated for 10 mins followed by AMP addition measured after 10 mins; type: cell-based; settings: COS-7
[7] = biological target: T5, 5'-nucleotidase (Rattus norvegicus) (UniProt P21588); assay: Inhibition of rat Ecto-5'-nucleotidase transfected in COS7 cells at 1 mM preincubated for 10 mins followed by AMP addition measured after 10 mins; type: cell-based; settings: COS-7
T5 sequence (whole entry): T1 sequence (P21588 whole entry)

5'-nucleotidase [8] = biological target: T3, 5'-nucleotidase; settings: COS-7, 0.5 to 2 uM
[9] = biological target: Intestinal-type alkaline phosphatase (Bos taurus) (UniProt P19111); settings: 0.5 to 2 uM
Description: Competitive inhibition of calf intestinal alkaline phosphatase at 0.5 to 2 uM preincubated for 3 to 5 mins followed by CDP-star substrate addition measured after 15 mins by double-reciprocal plot analysis

Bos taurus = organism: Bos taurus; assay: Selectivity ratio of Ki for calf intestinal alkaline phosphatase to Ki for bovine tissue non-specific alkaline phosphatase
[10] = biological target: T4, Alkaline phosphatase, tissue-nonspecific isozyme (Bos taurus); assay: Competitive inhibition of bovine tissue non-specific alkaline phosphatase at 0.5 to 2 uM preincubated for 3 to 5 mins followed by CDP-star substrate addition measured after 15 mins by double-reciprocal plot analysis

T3 sequence (P21589 whole entry): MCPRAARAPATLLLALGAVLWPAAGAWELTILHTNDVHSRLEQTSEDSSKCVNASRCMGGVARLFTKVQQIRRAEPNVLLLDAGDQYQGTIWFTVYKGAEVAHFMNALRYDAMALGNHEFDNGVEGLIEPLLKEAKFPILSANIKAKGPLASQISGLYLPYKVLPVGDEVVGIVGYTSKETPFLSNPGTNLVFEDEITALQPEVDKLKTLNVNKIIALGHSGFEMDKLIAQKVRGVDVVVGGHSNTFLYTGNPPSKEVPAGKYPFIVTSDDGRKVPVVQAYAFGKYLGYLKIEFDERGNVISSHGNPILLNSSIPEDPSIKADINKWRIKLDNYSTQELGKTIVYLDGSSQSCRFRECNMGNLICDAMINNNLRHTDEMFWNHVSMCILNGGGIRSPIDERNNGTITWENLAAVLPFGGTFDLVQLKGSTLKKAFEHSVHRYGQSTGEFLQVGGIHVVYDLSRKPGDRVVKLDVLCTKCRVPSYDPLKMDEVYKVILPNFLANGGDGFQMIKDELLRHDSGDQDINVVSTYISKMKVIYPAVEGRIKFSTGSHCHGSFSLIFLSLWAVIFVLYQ
Intestinal-type alkaline phosphatase, sequence (P19111 whole entry): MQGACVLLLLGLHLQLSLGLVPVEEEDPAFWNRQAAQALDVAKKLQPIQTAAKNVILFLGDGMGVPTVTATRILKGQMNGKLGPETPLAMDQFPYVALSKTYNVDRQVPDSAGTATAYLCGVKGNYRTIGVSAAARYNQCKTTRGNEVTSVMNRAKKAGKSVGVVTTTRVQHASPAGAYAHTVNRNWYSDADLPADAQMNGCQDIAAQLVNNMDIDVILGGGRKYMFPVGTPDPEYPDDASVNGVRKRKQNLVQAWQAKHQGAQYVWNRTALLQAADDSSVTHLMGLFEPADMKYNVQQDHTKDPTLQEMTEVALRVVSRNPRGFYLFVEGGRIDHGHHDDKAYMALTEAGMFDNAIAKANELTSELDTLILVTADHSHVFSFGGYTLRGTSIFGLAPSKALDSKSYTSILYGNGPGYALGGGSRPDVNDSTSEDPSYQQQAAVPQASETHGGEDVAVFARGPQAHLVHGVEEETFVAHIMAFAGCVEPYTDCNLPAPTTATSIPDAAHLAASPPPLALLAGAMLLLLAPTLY
Intestinal-type alkaline phosphatase (Bos taurus), sequence (P19111 20-506 limits assumed): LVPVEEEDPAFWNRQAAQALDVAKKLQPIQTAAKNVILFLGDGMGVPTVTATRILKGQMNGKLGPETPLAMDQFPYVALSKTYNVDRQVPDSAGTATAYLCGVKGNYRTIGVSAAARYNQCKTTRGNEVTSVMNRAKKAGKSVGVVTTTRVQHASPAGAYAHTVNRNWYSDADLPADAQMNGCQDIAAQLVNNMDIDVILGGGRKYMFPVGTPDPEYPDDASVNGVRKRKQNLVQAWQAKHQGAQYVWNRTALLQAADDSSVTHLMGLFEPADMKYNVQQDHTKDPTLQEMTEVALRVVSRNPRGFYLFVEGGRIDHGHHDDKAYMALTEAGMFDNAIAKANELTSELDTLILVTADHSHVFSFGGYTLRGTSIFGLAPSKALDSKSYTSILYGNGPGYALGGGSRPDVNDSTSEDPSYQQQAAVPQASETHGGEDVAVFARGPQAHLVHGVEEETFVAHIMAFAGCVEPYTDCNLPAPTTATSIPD

Row | IC50 (5'-nucleotidase [1]) [nM] | Ki (5'-nucleotidase [1]) [nM] | IC50 [2] [µM] | Ki [2] [µM] | IC50 [3] [µM] | Ki [3] [µM] | IC50 (5'-nucleotidase [4]) [nM] | Ki (5'-nucleotidase [4]) [nM] | inhibition [7] [%] | SMILES | also measured
1 | 4810 | 229 | 8.34 | 3.59 | 3.52 | 1.49 | 970 | 46 | – | COC1Oc2c(Cl)cc(Cl)cc2C(=O)/C1=C\Nc1cccc(S(N)(=O)=O)c1 (racemic) | –
2 | 1090 | 51.7 | – | – | – | – | – | – | – | CCOC1Oc2ccccc2C(=O)/C1=C\Nc1ccc(S(=O)(=O)Nc2ccc(OC)nn2)cc1 (racemic) | –
3 | 3730 | 178 | – | – | – | – | – | – | – | CCOC1Oc2ccc(CC)cc2C(=O)/C1=C\Nc1ccc(S(N)(=O)=O)cc1 (racemic) | –
4 | 3810 | 181 | – | – | – | – | – | – | – | O=c1c(C2Nc3ccccc3S(=O)(=O)N2)coc2ccccc12 (racemic) | –
5 | 1310 | 62 | 2.32 | 0.992 | – | – | 1350 | 64 | – | COC1Oc2ccc(Cl)cc2C(=O)/C1=C\Nc1ccccc1S(N)(=O)=O (racemic) | inhibition [5]: 29.9%
6 | – | – | 6.56 | 2.77 | 110 | 47.2 | – | – | 47.5 | COC1Oc2ccc(C)cc2C(=O)/C1=C\Nc1cccc(S(N)(=O)=O)c1 (racemic) | inhibition (5'-nucleotidase [6]): 44.5%
7 | 101 | 4.7 | – | – | – | – | – | – | – | CCOC1Oc2ccc(CC)cc2C(=O)/C1=C\Nc1ccccc1S(N)(=O)=O (racemic) | –
8 | 2390 | 114 | 7.81 | 3.34 | 715 | 305 | 1910 | 91 | – | COC1Oc2ccccc2C(=O)/C1=C\Nc1ccccc1S(N)(=O)=O (racemic) | –
9 | 10100 | 472 | 3.25 | 1.38 | 16.2 | 6.19 | 2920 | 138 | – | COC1Oc2c(Cl)cc(Cl)cc2C(=O)/C1=C\Nc1ccc(S(N)(=O)=O)cc1 (racemic) | –
10 | 40100 | 1910 | – | – | – | – | – | – | – | CCOC1Oc2c(Br)cc(Br)cc2C(=O)/C1=C\Nc1ccccc1S(N)(=O)=O (racemic) | –
11 | – | – | – | – | – | – | – | – | 29.7 | CCOC1Oc2ccc(Br)cc2C(=O)/C1=C\Nc1ccc(S(N)(=O)=O)cc1 (racemic) | –
12 | – | – | 13.5 | 5.66 | 1.46 | 0.623 | – | – | 46 | COC1Oc2ccc(F)cc2C(=O)/C1=C\Nc1cccc(S(N)(=O)=O)c1 (racemic) | inhibition (5'-nucleotidase [6]): 44.4%
13 | – | – | – | – | – | – | – | – | 40.5 | CCOC1Oc2ccc(CC)cc2C(=O)/C1=C\Nc1cccc(S(N)(=O)=O)c1 (racemic) | –
14 | 2380 | 113 | 31.9 | 13.6 | – | – | 560 | 27 | – | COC1Oc2ccc(Cl)cc2C(=O)/C1=C\Nc1cccc(S(N)(=O)=O)c1 (racemic) | inhibition [5]: 34.2%
15 | – | – | 10.2 | 4.26 | 17.1 | 7.29 | – | – | 45.4 | COC1Oc2ccc(F)cc2C(=O)/C1=C\Nc1ccccc1S(N)(=O)=O (racemic) | inhibition (5'-nucleotidase [6]): 48.2%
16 | – | – | 68.6 | 29.1 | 17.6 | 7.51 | – | – | 46.4 | COC1Oc2ccc(F)cc2C(=O)/C1=C\Nc1ccc(S(N)(=O)=O)cc1 (racemic) | inhibition (5'-nucleotidase [6]): 46.8%
17 | 1840 | 87 | 9.87 | 4.21 | 5.36 | 2.28 | 880 | 42 | – | COC1Oc2c(Cl)cc(Cl)cc2C(=O)/C1=C\Nc1ccccc1S(N)(=O)=O (racemic) | –
18 | – | – | – | – | – | – | – | – | 48 | CCOC1Oc2ccccc2C(=O)/C1=C\Nc1ccc(S(=O)(=O)Nc2nnc(C)s2)cc1 (racemic) | –
19 | 990 | 47 | – | – | – | – | – | – | – | CCOC1Oc2ccc(F)cc2C(=O)/C1=C\Nc1cccc(S(N)(=O)=O)c1 (racemic) | –

Row | IC50 (5'-nucleotidase [1]) [nM] | Ki (5'-nucleotidase [1]) [nM] | IC50 [2] [µM] | Ki [2] [µM] | IC50 [3] [µM] | Ki [3] [µM] | IC50 (5'-nucleotidase [4]) [nM] | Ki (5'-nucleotidase [4]) [nM] | inhibition [7] [%] | SMILES | also measured
20 | 540 | 26 | 0.527 | 0.22 | 47.1 | 20.1 | 1170 | 53 | – | CC(C)OC1Oc2ccccc2C(=O)/C1=C\Nc1ccc(S(N)(=O)=O)cc1 (racemic) | –
21 | 2710 | 129 | – | – | – | – | – | – | – | O=c1c(C2Nc3ccccc3S(=O)(=O)N2)coc2ccc(F)cc12 (racemic) | –
22 | – | – | – | – | – | – | – | – | 20.3 | O=c1c(C2Nc3ccccc3S(=O)(=O)N2)coc2ccc(Br)cc12 (racemic) | –
23 | – | – | 48.3 | 20.6 | 4.57 | 1.95 | 1320 | 63 | 6.66 | CCCCOC1Oc2ccccc2C(=O)/C1=C\Nc1ccc(S(N)(=O)=O)cc1 (racemic) | –
24 | 6130 | 292 | – | – | – | – | – | – | – | CCOC1Oc2ccc(Br)cc2C(=O)/C1=C\Nc1cccc(S(N)(=O)=O)c1 (racemic) | –
25 | – | – | – | – | – | – | – | – | 39.5 | CCOC1Oc2ccccc2C(=O)/C1=C\Nc1ccc(S(N)(=O)=O)cc1 (racemic) | –
26 | – | – | – | – | – | – | – | – | 28.2 | CCOC1Oc2ccccc2C(=O)/C1=C\Nc1ccc(S(=O)(=O)Nc2cc(OC)nc(OC)n2)cc1 (racemic) | –
27 | – | – | 3.13 | 1.34 | 8.17 | 3.49 | – | – | 42.9 | COC1Oc2ccc(C)cc2C(=O)/C1=C\Nc1ccc(S(N)(=O)=O)cc1 (racemic) | inhibition (5'-nucleotidase [6]): 47%
28 | – | – | 17.9 | 7.66 | 111 | 47.5 | 287 | 14 | 25.7 | CC(C)OC1Oc2ccccc2C(=O)/C1=C\Nc1cccc(S(N)(=O)=O)c1 (racemic) | inhibition (5'-nucleotidase [8]): Active
29 | 2130 | 101 | – | – | – | – | – | – | – | CCOC1Oc2ccc(F)cc2C(=O)/C1=C\Nc1ccc(S(N)(=O)=O)cc1 (racemic) | –
30 | – | – | – | – | – | – | – | – | 30.1 | CCOC1Oc2ccccc2C(=O)/C1=C\Nc1cccc(S(N)(=O)=O)c1 (racemic) | –
31 | 2810 | 134 | 39.8 | 16.9 | – | – | 380 | 18 | – | COC1Oc2ccccc2C(=O)/C1=C\Nc1cccc(S(N)(=O)=O)c1 (racemic) | inhibition [5]: 32.1%
32 | 15200 | 712 | – | – | – | – | – | – | – | CCOC1Oc2ccccc2C(=O)/C1=C\Nc1ccc(S(=O)(=O)Nc2ccccn2)cc1 (racemic) | –
33 | 3610 | 172 | 2.29 | 0.978 | 77.8 | 33.2 | 377 | 18 | – | CCCCOC1Oc2ccccc2C(=O)/C1=C\Nc1cccc(S(N)(=O)=O)c1 (racemic) | –
34 | – | – | – | – | – | – | – | – | 23.6 | CCOC1Oc2ccc(Br)cc2C(=O)/C1=C\Nc1ccc(S(=O)(=O)Nc2ccccn2)cc1 (racemic) | –
35 | 1710 | 81 | 4.43 | 1.89 | – | – | 1660 | 79 | – | COC1Oc2ccc(Cl)cc2C(=O)/C1=C\Nc1ccc(S(N)(=O)=O)cc1 (racemic) | inhibition [5]: 20.9%
36 | – | – | 0.565 | 0.24 | 171 | 72.9 | 7110 | 338 | 27.7 | COC1Oc2ccccc2C(=O)/C1=C\Nc1ccc(S(N)(=O)=O)cc1 (racemic) | inhibition [9]: Active
37 | – | – | 5.06 | 2.18 | 0.18 | 0.078 | – | – | 47.8 | COC1Oc2ccc(C)cc2C(=O)/C1=C\Nc1ccccc1S(N)(=O)=O (racemic) | Ratio Ki (Bos taurus): 28; inhibition [10]: Active; inhibition (5'-nucleotidase [6]): 39.1%
